Measured values as given in ChEMBL document CHEMBL1201862, “PubChem BioAssay data set” (2004).
The source made the active and inactive calls.

Legend:
[1] = molecular target: Eukaryotic translation initiation factor 4H (Homo sapiens, UniProt Q15056); assay: human eIF4H binding inhibitors, primary screen, translation initiation inhibitor project, biochemical, uHTS, fluorescence polarization (AID 2012)
[2] = molecular target: Polyadenylate-binding protein 1 (Homo sapiens, UniProt P11940); assay: PABP poly(A) RNA binding inhibitors, primary screen, biochemical, fluorescence polarization, uHTS (AID 2014)
[3] = molecular target: DNA dC->dU-editing enzyme APOBEC-3A (Homo sapiens, UniProt P31941); assay: Dose Response confirmation of small molecule APOBEC3A DNA Deaminase Inhibitors via a fluorescence-based single-stranded DNA deaminase assay. [Related pubchem assays (depositor defined):AID493011, AID493024]; assay type: functional
[4] = molecular target: DNA dC->dU-editing enzyme APOBEC-3G (Homo sapiens, UniProt Q9HC16); assay type: functional;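 note: Dose-response counterscreen measuring inhibition of APOBEC3G DNA deaminase activity, run while confirming APOBEC3A inhibitors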
[5] = NIH-3T3 fibroblast cytotoxicity, dose response, cytotoxicity control, cell-based, fluorescence, Alamar Blue, secondary assay (AID 2327); assay type: functional;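 note: NIH-3T3 mouse fibroblasts cultured with fluconazole at 8 µg/mL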
[6] = A Cell Based Secondary Assay To Explore Cytotoxicity of Compounds that Sensitize Mycobacterium Tuberculosis to Beta-Lactam Antibiotics.; assay type: functional
[7] = C. albicans growth with fluconazole, confirmation, fluorescence, retest (AID 2467); assay type: functional, cell-based
[8] = molecular target: T1, X-box-binding protein 1 (Homo sapiens, UniProt P17861); assay type: functional, Cricetulus griseus;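 note: confirmatory dose-response counter-screen serving a CHOP assay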
T1 sequence (P17861 whole entry): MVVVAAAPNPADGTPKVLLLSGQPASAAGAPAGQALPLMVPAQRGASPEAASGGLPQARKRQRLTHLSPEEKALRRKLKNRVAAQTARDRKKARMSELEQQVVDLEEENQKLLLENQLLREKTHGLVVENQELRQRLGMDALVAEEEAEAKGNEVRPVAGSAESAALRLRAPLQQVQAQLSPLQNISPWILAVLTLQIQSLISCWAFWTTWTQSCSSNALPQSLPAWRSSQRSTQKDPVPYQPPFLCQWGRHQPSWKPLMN

[9] = molecular target: T2, Aminopeptidase N (Plasmodium falciparum FcB1/Columbia, UniProt O96935); assay: P. falciparum M1AAP inhibitors, biochemical, fluorogenic H-Leu-NHMec substrate, 1536-well (AID 1445); set-up: species or system Plasmodium falciparum 3D7, 3D7
T2 sequence (O96935 whole entry): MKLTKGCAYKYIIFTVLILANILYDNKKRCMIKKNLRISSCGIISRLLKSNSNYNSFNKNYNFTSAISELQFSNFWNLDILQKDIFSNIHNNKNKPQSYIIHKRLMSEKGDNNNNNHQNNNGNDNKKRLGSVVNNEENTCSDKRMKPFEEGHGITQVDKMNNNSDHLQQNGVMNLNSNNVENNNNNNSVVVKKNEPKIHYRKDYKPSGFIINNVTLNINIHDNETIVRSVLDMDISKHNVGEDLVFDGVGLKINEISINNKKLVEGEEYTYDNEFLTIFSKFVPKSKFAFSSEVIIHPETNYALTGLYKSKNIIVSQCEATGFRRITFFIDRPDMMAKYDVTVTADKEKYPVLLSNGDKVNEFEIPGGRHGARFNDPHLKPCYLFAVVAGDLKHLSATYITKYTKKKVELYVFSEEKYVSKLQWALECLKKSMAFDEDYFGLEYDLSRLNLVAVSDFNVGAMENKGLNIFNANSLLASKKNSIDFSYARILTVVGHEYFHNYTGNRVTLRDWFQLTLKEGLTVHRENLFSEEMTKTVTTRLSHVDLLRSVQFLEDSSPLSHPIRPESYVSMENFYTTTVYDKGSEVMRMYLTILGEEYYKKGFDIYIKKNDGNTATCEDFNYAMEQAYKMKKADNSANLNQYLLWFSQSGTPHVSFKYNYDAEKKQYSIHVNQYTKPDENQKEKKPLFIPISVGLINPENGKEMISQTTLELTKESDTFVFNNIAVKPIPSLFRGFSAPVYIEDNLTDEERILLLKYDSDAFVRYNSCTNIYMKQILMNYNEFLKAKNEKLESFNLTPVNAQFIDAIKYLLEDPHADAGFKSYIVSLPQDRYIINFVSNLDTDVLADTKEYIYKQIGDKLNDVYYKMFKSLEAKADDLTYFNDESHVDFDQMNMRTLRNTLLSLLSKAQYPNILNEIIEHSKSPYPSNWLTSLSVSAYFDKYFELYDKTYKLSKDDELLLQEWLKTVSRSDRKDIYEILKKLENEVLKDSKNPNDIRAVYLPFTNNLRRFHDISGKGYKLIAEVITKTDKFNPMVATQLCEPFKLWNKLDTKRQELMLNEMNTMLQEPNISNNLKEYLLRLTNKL

[10] = inhibitors of intracellular T. cruzi replication, confirmation, NIH3T3 host cells, beta-gal luminescence (AID 2044); assay type: functional, cell-based;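 note: intracellular parasites grown in NIH/3T3 mouse fibroblasts as host cells; luminescent beta-galactosidase reporter signal from transgenic T. cruzi replicating inside host cells; inhibitors lower the luminescence signal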
[11] = cytotoxicity toward NIH3T3 fibroblasts, dose response, counter-screen, cell-based, ATP luminescence, mouse fibroblasts (AID 2010); assay type: functional;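 note: cells exposed to compound for about 90 hours before reading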
[12] = molecular target: T3, Short transient receptor potential channel 4 (Mus musculus, UniProt Q9QUQ5); assay: mouse TRPC4 channel inhibitors, dose response, cell-based, HEK293 TRPC4/mu-opioid, Fluo-4 calcium (AID 434942); assay type: functional;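 note: potency of inhibitors blocking the TRPC4 calcium response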
T3 sequence (Q9QUQ5 whole entry): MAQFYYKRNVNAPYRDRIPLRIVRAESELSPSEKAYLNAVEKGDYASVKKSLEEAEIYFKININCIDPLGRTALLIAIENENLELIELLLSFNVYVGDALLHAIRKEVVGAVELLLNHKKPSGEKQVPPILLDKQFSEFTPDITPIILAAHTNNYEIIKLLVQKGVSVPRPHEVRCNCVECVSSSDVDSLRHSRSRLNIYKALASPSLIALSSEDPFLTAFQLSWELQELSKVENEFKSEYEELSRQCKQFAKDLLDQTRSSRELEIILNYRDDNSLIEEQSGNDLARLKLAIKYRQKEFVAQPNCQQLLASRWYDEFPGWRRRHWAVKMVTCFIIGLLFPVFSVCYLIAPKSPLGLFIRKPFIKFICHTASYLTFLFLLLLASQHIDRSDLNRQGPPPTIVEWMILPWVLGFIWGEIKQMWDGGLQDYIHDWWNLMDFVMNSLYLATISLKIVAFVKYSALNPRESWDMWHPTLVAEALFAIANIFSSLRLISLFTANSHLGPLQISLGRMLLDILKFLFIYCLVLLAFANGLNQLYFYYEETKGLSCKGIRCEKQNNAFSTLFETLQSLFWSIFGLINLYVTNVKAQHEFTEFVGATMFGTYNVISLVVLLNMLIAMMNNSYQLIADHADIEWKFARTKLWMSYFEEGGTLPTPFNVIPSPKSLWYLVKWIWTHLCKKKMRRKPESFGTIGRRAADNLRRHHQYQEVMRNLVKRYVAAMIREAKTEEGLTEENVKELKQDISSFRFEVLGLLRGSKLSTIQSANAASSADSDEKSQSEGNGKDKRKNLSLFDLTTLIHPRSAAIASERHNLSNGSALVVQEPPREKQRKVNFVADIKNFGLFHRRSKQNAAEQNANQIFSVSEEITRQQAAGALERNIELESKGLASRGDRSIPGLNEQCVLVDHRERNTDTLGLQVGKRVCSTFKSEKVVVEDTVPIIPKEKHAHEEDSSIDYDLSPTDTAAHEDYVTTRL

[13] = molecular target: Glyceraldehyde-3-phosphate dehydrogenase (Homo sapiens, UniProt P04406)
[14] = molecular target: Alkaline phosphatase, placental type (Homo sapiens, UniProt P05187); assay: PLAP enzyme inhibitors, confirmation, biochemical, luminescence (AID 1512); assay type: functional
[15] = molecular target: T4, Alkaline phosphatase, tissue-nonspecific isozyme (Homo sapiens, UniProt P05186); assay: human TNAP enzyme inhibitors, SAR follow-up, biochemical, luminescent, dose response (AID 1056)
T4 sequence (P05186 whole entry): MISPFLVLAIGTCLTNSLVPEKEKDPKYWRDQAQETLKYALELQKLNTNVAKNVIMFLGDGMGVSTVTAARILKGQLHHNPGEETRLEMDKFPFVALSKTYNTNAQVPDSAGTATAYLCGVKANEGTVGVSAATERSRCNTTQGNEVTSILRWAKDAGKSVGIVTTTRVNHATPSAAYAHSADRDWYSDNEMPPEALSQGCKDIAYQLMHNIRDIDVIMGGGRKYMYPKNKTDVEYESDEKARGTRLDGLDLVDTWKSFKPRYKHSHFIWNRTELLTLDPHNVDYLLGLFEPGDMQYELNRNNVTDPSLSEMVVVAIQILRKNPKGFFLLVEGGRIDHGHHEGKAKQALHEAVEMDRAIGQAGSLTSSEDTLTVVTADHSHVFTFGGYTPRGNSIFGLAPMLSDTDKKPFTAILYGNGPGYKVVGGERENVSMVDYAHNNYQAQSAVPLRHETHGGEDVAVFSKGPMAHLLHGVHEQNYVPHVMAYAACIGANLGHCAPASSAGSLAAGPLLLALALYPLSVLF

[16] = HEp-2 cell cytotoxicity, dose response, cytotoxicity control for RSV inhibitor project, HTS (AID 2410); assay type: functional; details: human respiratory syncytial virus
[17] = Luminescence Cell-Based Dose Confirmation HTS to Identify Activators of 5'UTR Stem-Loop Driven Alpha-Synuclein mRNA Translation in H4 Neuroglioblastoma Cells. [Related pubchem assays: 1829 (Project Summary), 1814 (Primary HTS)]; assay type: functional
[18] = Luminescence Cell-Based Dose Response HTS to Identify Activators of Luciferase Translation or Activity in H4 […] Cells. [Related pubchem assays: 1829 (Project Summary), 1814 (Primary HTS)]; assay type: functional
[19] = system: H4; assay: Luminescence Cell-Based Dose Response HTS to Identify Activators of 5'UTR Stem-Loop Driven Prion Protein mRNA Translation in H4 Neuroglioblastoma Cells. [Related pubchem assays: 1829 (Project Summary), 1814 (Primary HTS)]; assay type: functional; details: Homo sapiens
[20] = molecular target: Genome polyprotein (dengue virus type 2, UniProt P29990); assay: Dengue-2 NS5 methyltransferase inhibitors, primary screen, biochemical, confirmation dose response (AID 588689); assay type: functional
[21] = cells

Sequence of Polyadenylate-binding protein 1 (P11940 whole entry): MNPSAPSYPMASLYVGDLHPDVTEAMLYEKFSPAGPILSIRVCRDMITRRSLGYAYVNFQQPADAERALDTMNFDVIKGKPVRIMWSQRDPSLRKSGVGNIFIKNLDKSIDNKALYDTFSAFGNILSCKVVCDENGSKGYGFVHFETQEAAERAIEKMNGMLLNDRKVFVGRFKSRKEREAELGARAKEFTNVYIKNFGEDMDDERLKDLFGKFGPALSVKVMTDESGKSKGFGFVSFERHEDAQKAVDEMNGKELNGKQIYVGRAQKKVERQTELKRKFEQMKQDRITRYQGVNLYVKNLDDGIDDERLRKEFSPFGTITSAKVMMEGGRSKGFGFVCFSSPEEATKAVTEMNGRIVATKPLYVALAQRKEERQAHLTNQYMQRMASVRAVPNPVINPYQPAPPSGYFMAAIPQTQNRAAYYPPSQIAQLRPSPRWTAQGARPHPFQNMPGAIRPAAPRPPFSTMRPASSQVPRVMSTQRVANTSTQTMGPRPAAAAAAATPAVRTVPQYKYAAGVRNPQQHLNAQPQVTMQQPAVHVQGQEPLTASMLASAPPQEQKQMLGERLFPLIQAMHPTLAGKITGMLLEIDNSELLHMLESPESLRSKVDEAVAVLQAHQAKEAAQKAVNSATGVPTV
Sequence of Alkaline phosphatase, placental type (P05187 whole entry): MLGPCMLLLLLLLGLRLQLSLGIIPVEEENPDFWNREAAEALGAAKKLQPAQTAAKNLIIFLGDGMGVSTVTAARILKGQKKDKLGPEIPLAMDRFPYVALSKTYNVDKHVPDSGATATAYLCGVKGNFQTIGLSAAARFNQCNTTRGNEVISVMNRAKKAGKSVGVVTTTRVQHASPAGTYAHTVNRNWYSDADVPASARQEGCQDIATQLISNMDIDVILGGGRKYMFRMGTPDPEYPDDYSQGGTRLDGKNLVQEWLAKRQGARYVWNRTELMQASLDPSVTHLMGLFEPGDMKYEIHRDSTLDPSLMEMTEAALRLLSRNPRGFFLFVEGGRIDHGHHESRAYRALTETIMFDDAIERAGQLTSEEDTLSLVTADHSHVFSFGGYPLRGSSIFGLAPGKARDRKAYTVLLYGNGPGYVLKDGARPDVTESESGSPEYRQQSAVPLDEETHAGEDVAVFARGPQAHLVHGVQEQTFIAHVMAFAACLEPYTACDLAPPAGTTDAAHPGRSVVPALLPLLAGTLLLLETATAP
Sequence of DNA dC->dU-editing enzyme APOBEC-3G (Q9HC16 whole entry): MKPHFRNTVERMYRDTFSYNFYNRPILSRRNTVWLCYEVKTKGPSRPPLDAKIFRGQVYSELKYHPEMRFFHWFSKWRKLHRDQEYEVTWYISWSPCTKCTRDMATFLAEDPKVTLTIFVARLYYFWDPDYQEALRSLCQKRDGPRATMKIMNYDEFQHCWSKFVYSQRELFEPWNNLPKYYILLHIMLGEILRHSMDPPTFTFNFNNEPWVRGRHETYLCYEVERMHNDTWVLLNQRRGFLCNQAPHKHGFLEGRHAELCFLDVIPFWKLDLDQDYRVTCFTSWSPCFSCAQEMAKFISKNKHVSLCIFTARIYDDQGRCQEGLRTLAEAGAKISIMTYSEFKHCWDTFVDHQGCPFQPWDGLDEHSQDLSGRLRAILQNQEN
Sequence of DNA dC->dU-editing enzyme APOBEC-3A (P31941 whole entry): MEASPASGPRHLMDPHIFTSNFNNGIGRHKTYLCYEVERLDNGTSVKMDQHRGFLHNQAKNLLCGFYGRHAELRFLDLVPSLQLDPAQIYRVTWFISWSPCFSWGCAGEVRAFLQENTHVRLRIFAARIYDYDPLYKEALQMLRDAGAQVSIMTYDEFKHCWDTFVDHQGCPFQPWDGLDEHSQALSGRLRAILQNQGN
Sequence of Glyceraldehyde-3-phosphate dehydrogenase (P04406 whole entry): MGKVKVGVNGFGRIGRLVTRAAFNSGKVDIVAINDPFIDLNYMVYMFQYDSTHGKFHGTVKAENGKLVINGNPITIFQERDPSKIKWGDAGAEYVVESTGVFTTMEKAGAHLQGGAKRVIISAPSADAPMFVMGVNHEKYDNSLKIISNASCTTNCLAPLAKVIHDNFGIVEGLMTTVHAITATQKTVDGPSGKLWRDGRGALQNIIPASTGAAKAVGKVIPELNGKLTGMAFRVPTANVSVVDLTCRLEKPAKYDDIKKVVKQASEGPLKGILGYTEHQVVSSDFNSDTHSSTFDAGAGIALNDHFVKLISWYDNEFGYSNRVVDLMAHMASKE
Sequence of Genome polyprotein (P29990 2492-3391 limits assumed): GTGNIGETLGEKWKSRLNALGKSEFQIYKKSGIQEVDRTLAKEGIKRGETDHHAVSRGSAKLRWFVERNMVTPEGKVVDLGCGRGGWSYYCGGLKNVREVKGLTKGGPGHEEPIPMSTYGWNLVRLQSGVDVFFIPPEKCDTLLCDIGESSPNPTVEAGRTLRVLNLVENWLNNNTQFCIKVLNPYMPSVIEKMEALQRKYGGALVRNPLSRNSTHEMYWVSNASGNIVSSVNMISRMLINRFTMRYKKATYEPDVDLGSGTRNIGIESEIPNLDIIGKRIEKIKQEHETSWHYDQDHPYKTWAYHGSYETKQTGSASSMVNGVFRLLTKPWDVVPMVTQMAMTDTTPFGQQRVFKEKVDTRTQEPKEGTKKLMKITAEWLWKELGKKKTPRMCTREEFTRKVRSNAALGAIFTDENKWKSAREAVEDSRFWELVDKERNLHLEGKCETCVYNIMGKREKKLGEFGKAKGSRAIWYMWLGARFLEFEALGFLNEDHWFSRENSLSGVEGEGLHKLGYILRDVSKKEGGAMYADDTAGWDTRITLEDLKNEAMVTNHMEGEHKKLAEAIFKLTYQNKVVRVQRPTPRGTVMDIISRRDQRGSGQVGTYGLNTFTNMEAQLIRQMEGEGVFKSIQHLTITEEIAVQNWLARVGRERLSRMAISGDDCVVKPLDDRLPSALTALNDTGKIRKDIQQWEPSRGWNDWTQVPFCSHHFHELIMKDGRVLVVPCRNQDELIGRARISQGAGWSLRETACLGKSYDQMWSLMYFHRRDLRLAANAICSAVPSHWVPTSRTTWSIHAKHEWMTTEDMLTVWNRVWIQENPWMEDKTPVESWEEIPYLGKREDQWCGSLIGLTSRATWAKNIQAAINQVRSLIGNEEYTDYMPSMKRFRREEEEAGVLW

For CC1=CC(C)C(CN(CCC[N+](C)(C)C)C(=O)Nc2ccccc2)C(C)C1 (stereo not drawn), the IC50 [1] was > 100 µM (inactive) and the IC50 [2] was 4.08 µM (active).

For COC(=O)CCCCCCCCC(O)C[N+]1(C)CCOCC1 (stereo not drawn), the IC50 [1] was > 100 µM (inactive), the IC50 [2] was 2.48 µM (active) and the IC50 [3] was 2.36 µM (active). For the same molecule, the IC50 [4] was 3.49 µM (active).

For COC(=O)c1c(C)n(-c2ccccc2)c2ccc(O)cc12, the EC50 [5] was 2.59 µM (inconclusive), the CC50 [6] was > 40 µM (active) and the EC50 [7] was > 38 µM (not active).

With CCOC(=O)N1CCC(n2c(=S)[nH]c3cc(OCC)c(OCC)cc3c2=O)CC1 the “Absolute IC50 (XBP1)” value [8] was 10 µM.

For NNC(=O)Cn1c(-c2nonc2N)nc2ccccc21, the IC50 [9] was 58.2 µM (active).

In the case of Cc1[nH]c2ccccc2c1/C=C1\SC(=S)N(c2cccc(C(=O)O)c2)C1=O, the IC50 [9] is reported as 55.9 µM (active).

With CCCCCC(=O)Nc1cccc(C2=NOC3(C2)C[C@@H](C(N)=O)N(C(=O)CC(c2ccccc2)c2ccccc2)C3)c1 (stereo partly drawn) the CC50 [6] was > 40 µM (active), the EC50 [10] was 0.396 µM (active) and the EC50 [11] was > 60 µM (not active).

With O=C(c1ccc2c(c1)OCO2)C1CCCN(Cc2ccccc2OC(F)F)C1 (stereo not drawn) the EC50 [12] was 2.99 µM (active).

For Cc1ccc(C(=O)NCC(=O)OCC(=O)NC(C)c2ccccc2)s1 (stereo not drawn), the IC50 [9] was 39.6 µM (active).

For COc1ccc(/C=N/Nc2nc(-c3ccc(C)cc3)c(NC(C)=O)s2)cc1, the CC50 [6] was > 40 µM (active).

For C[C@H]1C=CC(=O)O[C@H]1c1ccccc1, the CC50 [6] was 22.9 µM (active).

With COc1ccc(-c2nc3c4cnn(C)c4ncn3n2)cc1 the IC50 [13] was > 100 µM (not active), the IC50 [14] was > 100 µM (inactive) and the IC50 [15] was > 100 µM (inactive).

With O=C(c1cc(-c2ccc(Cl)cc2Cl)n[nH]1)N1CCN(CCO)CC1 the IC50 [13] was > 100 µM (not active) and the IC50 [14] was > 100 µM (inactive).

For O=C(NC(=S)Nc1ccccc1C(=O)O)c1ccc(-c2ccc(Br)cc2)o1, the CC50 [16] was 19 µM (active), the EC50 [17] was 71.2 µM (active) and the EC50 [18] was 12.5 µM (active). The EC50 [19] was 22.1 µM (active), the EC50 [10] was 2.13 µM (active) and the EC50 [11] was > 60 µM (not active). The IC50 [20] was 42.2 µM (active) and the IC50 [21] was 6.21 µM (active).

With Cn1c(=O)cc(SCC(=O)NCCC2=CCCCC2)c2ccc(Cl)cc21 the “Absolute IC50 (XBP1)” value [8] was 10 µM.

With CCCCCCCCCCSc1nnc(NC(C)=O)[nH]1 the IC50 [14] was > 100 µM (inactive).

In the case of CC1(C)CC2CC(C)(CN2CC(O)COc2ccccc2)C1 (stereo not drawn), the EC50 [12] is reported as 1.88 µM (active).

For COCCCNc1cc(C)nc2ccccc12, the EC50 [12] was 3.76 µM (active).

With CCn1c(SCC(=O)NCc2ccccc2)nnc1C(CO)NC(=O)c1ccccc1 (stereo not drawn) the IC50 [1] was > 100 µM (inactive), the IC50 [2] was 6.06 µM (active) and the IC50 [3] was 3.67 µM (active). The IC50 [4] was 4.48 µM (active).

For CC(=O)OC[C@]12CCC(C)=C[C@H]1O[C@@H]1[C@H](O)[C@@H](OC(C)=O)[C@@]2(C)[C@]12CO2 [ANGUIDIN], the “Absolute IC50 (XBP1)” value [8] was 0.16 µM.

With CC[N+](C)(CC)CCC/C(=N/O)C(O)(c1ccccc1)c1ccccc1 the IC50 [1] was > 100 µM (inactive) and the IC50 [2] was 5.57 µM (active).
